From patent US9718826B2, “Imidazopyrazinone derivatives” (Merck Patent GmbH, priority 2013, dated 2017)

Experiments:
[1] = target: T1, GST-tagged Tankyrase-1 (1023-1327 aa) (Homo sapiens, UniProt O95271); experiment: Tankyrase 1 autoparsylation assay (HTRF); type: biochemical; settings: read-out: IC50 TNKS1 enzyme assay
T1 construct: GST-tagged Tankyrase-1 (1023-1327 aa)
Experimental: (§1) Biochemical activity testing of Tankyrase 1 and 2: Autoparsylation assay
(§2) The autoparsylation assay is run in two steps: the enzymatic reaction in which GST-tagged Tankyrase-1, resp Tankyrase-2 transferred biotinylated ADP-ribose to itself from biotinylated NAD as co-substrate and the detection reaction where a time resolved FRET between cryptate labelled anti-GST bound to the GST tag of the enzyme and Xlent® labelled-streptavidin bound the biotin-parsylation residue is analysed. The autoparsylation activity was detectable directly via the increase in HTRF signal.
(§3) The autoparsylation assay is performed as 384-well HTRF® (Cisbio, Codolet, France) assay format in Greiner low volume nb 384-well microtiter plates and is used for high throughput screen. 250 nM GST-tagged Tankyrase-1 (1023-1327 aa), respectively about 250 nM GST-tagged Tankyrase-2 (873-1166 aa) and 5 μM bio-NAD (Biolog, Life science Inst., Bremen, Germany) as co-substrate are incubated in a total volume of 5 μl (50 mM HEPES, 4 mM Mg-chloride, 0.05% Pluronic F-68, 1.4 mM DTT, 0.5% DMSO, pH 7.7) in the absence or presence of the test compound (10 dilution concentrations) for 90 min at 30° C. The reaction is stopped by the addition of 1 μl 50 mM EDTA solution. 2 μl of the detection solution (1.6 μM SA-Xlent® (Cisbio, Codolet, France), 7.4 nM Anti-GST-K® (Eu-labelled anti-GST, Cisbio, Codolet, France) in 50 mM HEPES, 800 mM KF, 0.1% BSA, 20 mM EDTA, 0.1% CHAPS, pH 7.0) are added. After 1 h incubation at room temperature the HTRF is measured with an Envision multimode reader (Perkin Elmer LAS Germany GmbH) at excitation wavelength 340 nm (laser mode) and emission wavelengths 615 nm and 665 nm. The ratio of the emission signals is determined. The full value used is the inhibitor-free reaction. The pharmacological zero value used is XAV-939 (Tocris) in a final concentration of 5 μM. The inhibitory values (IC50) are determined using either the program Symyx Assay Explorer® or Condosseo® from GeneData.

His-tagged Parp-1 = target: T2, His-tagged Parp-1 (Homo sapiens, UniProt P09874); experiment: PARP-1 autoparsylation assay (HTRF); type: biochemical; settings: PARP-1 autoparsylation HTRF
T2 construct: purchased Enzo Life Sciences GmbH, Lörrach, Germany
T2 sequence (P09874 whole entry): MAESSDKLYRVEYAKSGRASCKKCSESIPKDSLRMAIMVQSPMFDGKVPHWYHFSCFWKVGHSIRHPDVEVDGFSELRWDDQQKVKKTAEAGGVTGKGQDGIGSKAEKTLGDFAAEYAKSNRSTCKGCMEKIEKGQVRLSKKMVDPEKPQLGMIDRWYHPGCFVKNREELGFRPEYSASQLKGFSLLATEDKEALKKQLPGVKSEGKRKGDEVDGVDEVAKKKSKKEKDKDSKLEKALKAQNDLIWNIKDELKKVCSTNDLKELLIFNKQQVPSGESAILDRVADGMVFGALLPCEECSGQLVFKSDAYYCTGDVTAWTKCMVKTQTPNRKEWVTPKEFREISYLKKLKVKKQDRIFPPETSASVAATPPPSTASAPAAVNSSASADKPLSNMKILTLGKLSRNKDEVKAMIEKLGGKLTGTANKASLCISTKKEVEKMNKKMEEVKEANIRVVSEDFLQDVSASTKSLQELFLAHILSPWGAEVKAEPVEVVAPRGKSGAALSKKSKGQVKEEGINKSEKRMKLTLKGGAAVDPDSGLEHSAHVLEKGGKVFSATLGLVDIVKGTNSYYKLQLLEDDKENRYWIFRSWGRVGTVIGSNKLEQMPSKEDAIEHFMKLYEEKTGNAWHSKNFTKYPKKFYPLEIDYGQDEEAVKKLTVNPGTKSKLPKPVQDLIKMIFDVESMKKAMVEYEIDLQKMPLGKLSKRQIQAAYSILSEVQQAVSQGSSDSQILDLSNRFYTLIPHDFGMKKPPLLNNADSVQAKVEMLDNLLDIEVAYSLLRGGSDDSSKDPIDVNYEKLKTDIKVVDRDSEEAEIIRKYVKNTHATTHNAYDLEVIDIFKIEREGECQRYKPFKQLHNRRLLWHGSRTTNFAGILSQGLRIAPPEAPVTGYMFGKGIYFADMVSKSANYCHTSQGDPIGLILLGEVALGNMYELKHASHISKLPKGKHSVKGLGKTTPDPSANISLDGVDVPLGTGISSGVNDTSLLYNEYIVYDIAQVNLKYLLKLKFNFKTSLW
Excerpt: Description of the PARP1 Assay
Biochemical Activity Testing of PARP-1: Autoparsylation Assay
as §2, with “His-tagged Parp-1 transfers” for “GST-tagged Tankyrase-1, resp Tankyrase-2 transferred”, “ADP-ribose/ADP-ribose” for “ADP-ribose”, “NAD/NAD” for “NAD”, “anti-His antibody” for “anti-GST”, “His” for “GST”, “is” for “was”
The autoparsylation assay is performed as 384-well HTRF® (Cisbio, Codolet, France) assay format in Greiner low volume nb 384-well microtiter plates. 35 nM His-tagged Parp-1 (human, recombinant, Enzo Life Sciences GmbH, Lörrach, Germany) and a mixture of 125 nM bio-NAD (Biolog, Life science Inst., Bremen, Germany) and 800 nM NAD as co-substrate are incubated in a total volume of 6 μl (100 mM Tris/HCl, 4 mM Mg-chloride, 0.01% IGEPAL® CA630, 1 mM DTT, 0.5% DMSO, pH 8, 13 ng/μl activated DNA (BPS Bioscience, San Diego, US)) in the absence or presence of the test compound (10 dilution concentrations) for 150 min at 23° C. The reaction is stopped by the addition of 4 μl of the Stop/detection solution (70 nM SA-Xlent® (Cisbio, Codolet, France), 2.5 nM Anti-His-K® (Eu-labelled anti-His, Cisbio, Codolet, France) in 50 mM HEPES, 400 mM KF, 0.1% BSA, 20 mM EDTA, pH 7.0). After 1 h incubation at room temperature the HTRF is measured with an Envision multimode reader (Perkin Elmer LAS Germany GmbH) at excitation wavelength 340 nm (laser mode) and emission wavelengths 615 nm and 665 nm. The ratio of the emission signals is determined. The full value used is the inhibitor-free reaction. The pharmacological zero value used is Olaparib (LClabs, Woburn, US) in a final concentration of 1 μM. The inhibitory values (IC50) are determined using either the program Symyx Assay Explorer® or Condosseo® from GeneData.

[2] = target: T3, GST-tagged Tnks-1 (1023-1327 aa) (Homo sapiens, UniProt O95271); experiment: TNKS1 activity ELISA (autoparsylation assay); type: biochemical
T3 construct: GST-tagged Tnks-1 (1023-1327 aa, prepared in-house); made in house
T3 sequence (O95271 1023-1327): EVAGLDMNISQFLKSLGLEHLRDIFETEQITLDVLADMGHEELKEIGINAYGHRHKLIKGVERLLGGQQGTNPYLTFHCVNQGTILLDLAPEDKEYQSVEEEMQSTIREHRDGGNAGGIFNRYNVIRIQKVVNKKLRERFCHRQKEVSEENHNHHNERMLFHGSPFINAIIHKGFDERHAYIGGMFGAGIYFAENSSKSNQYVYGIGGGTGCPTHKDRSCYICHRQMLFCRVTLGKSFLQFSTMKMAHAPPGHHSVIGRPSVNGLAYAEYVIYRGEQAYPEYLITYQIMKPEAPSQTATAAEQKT
Experimental: (§4) Description of the TNKS1 and TNKS2 ELISA Assay
(§5) Biochemical Activity Testing of TNKS 1 and 2: Activity ELISA (Autoparsylation Assay)
(§6) For analysis of autoparsylation activity of TNKS 1 and 2 an activity ELISA is performed: In the first step GST tagged TNKS is captured on a Glutathione coated plate. Then the activity assay with biotinylated NAD is performed in the absence/presence of the compounds. During the enzymatic reaction GST tagged TNKS transfers biotinylated ADP-ribose to itself from biotinylated NAD as co-substrate. For the detection streptavidin-HRP conjugate is added that binds to the biotinylated TNKS and is thereby captured to the plates. The amount of biotinylated resp. autoparsylated TNKS is detected with a luminescence substrate for HRP. The level of the luminescence signal correlates directly with the amount of autoparsylated TNKS and therefore with activity of TNKS.
(§7) The activity ELISA is performed in 384 well Glutathione coated microtiter plates (Express capture Glutathione coated plate, Biocat, Heidelberg, Germany). The plates are pre-equilibrated with PBS. Then the plates are incubated with 50 μl 20 ng/well GST-tagged Tnks-1 (1023-1327 aa, prepared in-house), respectively GST-tagged Tnks-2 (873-1166 aa, prepared in-house) in assay buffer (50 mM HEPES, 4 mM Mg-chloride, 0.05% Pluronic F-68, 2 mM DTT, pH 7.7) overnight at 4° C. The plates are washed 3 times with PBS-Tween-20. The wells are blocked by incubation at room temperature for 20 minutes with 50 μl blocking buffer (PBS, 0.05% Tween-20, 0.5% BSA). Afterwards the plates are washed 3 times with PBS-Tween-20. The enzymatic reaction is performed in 50 μl reaction solution (50 mM HEPES, 4 mM Mg-chloride, 0.05% Pluronic F-68, 1.4 mM DTT, 0.5% DMSO, pH 7.7) with 10 μM bio-NAD (Biolog, Life science Inst., Bremen, Germany) as co-substrate in the absence or presence of the test compound (10 dilution concentrations) for 1 hour at 30° C. The reaction is stopped by 3 times washing with PBS-Tween-20. For the detection 50 μl of 20 ng/μl Streptavidin, HRP conjugate (MoBiTec, Göttingen, Germany) in PBS/0.05% Tween-20/0.01% BSA are added and the plates are incubated for 30 minutes at room temperature. After three times washing with PBS-Tween-20 50 μl of SuperSignal ELISA Femto Maximum sensitivity substrate solution (ThermoFisherScientific (Pierce), Bonn, Germany) are added. Following a 1 minute incubation at room temperature luminescence signals are measured with an Envision multimode reader (Perkin Elmer LAS Germany GmbH) at 700 nm. The full value used is the inhibitor-free reaction. The pharmacological zero value used is XAV-939 (Tocris) in a final concentration of 5 μM. The inhibitory values (IC50) are determined using either the program Symyx Assay Explorer® or Condosseo® from GeneData.

[3] = target: T4, GST-tagged Tankyrase-2 (873-1166 aa) (Homo sapiens, UniProt Q9H2K2); experiment: Tankyrase 2 autoparsylation assay (HTRF); type: biochemical; settings: read-out: IC50 TNKS2 enzyme assay
T4 construct: GST-tagged Tankyrase-2 (873-1166 aa)
T4 sequence (Q9H2K2 873-1166): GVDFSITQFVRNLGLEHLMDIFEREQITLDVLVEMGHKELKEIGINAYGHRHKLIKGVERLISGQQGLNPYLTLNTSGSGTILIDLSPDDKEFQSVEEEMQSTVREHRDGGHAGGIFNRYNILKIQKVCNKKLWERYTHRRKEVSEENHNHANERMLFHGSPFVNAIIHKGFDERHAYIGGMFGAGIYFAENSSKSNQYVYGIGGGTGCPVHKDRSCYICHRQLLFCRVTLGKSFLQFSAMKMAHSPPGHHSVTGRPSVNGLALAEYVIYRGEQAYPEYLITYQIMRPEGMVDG
Experimental: as §1, §2, §3

[4] = target: T5, GST-tagged Tnks-2 (873-1166 aa) (Homo sapiens, UniProt Q9H2K2); experiment: TNKS2 activity ELISA (autoparsylation assay); type: biochemical
T5 construct: GST-tagged Tnks-2 (873-1166 aa, prepared in-house); made in house
T5 sequence (Q9H2K2 873-1166): as above
Experimental: as §4, §5, §6, §7

Tankyrases = experiment: Cellular inhibition of Tankyrase, Axin2 level in DLD1 cells (Luminex); type: cell-based; settings: Axin2 increase, 24 hours, read-out: EC50 [M] TNKS cellular assay
Experimental: Measurement of Cellular Inhibition of Tankyrase
Since Tankyrases have been described to modulate cellular level of Axin2 (Huang et al., 2009; Nature) the increase of Axin2 level is used as read-out for determination of cellular inhibition of Tankyrases in a Luminex based assay.
Cells of the colon carcinoma cell line DLD1 are plated in 96 well plates with 1.5×10^4 cells per well. Next day, cells are treated with a serial dilution of test compound in seven steps as triplicates with a final DMSO concentration of 0.3%. After 24 hours, cells are lysed in lysis buffer (20 mM Tris/HCl pH 8.0, 150 mM NaCl, 1% NP40, 10% Glycerol) and lysates are cleared by centrifugation through a 96 well filter plate (0.65 μm). Axin2 protein is isolated from cell lysates by incubation with a monoclonal anti-Axin2 antibody (R&D Systems #MAB6078) that is bound to fluorescent carboxybeads. Then, bound Axin2 is specifically detected with a polyclonal anti-Axin2 antibody (Cell Signaling #2151) and an appropriate PE-fluorescent secondary antibody. The amount of isolated Axin2 protein is determined in a Luminex^200 machine (Luminex Corporation) according to the manufacturer's instruction by counting 100 events per well. Inhibition of Tankyrase by test compounds results in higher levels of Axin2 which directly correlates with an increase of detectable fluorescence. As controls cells are treated with solvent alone (neutral control) and with a Tankyrase reference inhibitor IWR-2 (3E-06 M) which refers as control for maximum increase of Axin2. For analysis, the obtained data are normalized against the untreated solvent control and fitted for determination of the EC50 values using the Assay Explorer software (Accelrys).

β-catenin = settings: Huang et al., 2009; cited from earlier work
DLD-1-cancer cells = settings: Huang et al., 2009; cited from earlier work

T1 sequence (O95271 1023-1327): as the sequence (O95271 1023-1327) above

Structure (SMILES) | IC50 [1] [µM] | IC50 (His-tagged Parp-1) [µM] | IC50 [2] [µM] | IC50 [3] [µM] | IC50 [4] [µM] | EC50 (Tankyrases) [M] | Wnt-stimulated accumulation of β-catenin (β-catenin) | growth of DLD-1-cancer cells (DLD-1-cancer cells)
Cc1ccc(-c2cn3cncc3c(=O)[nH]2)cc1 [Compound A1, 6-p-tolyl-7H-imidazo[1,5-a]pyrazin-8-one] | 0.3 to 3 | 3 to 50 | 0.3 to 3 | 0.3 to 3 | 0.3 to 3 | – | – | –
CC(C)(C)c1ccc(-c2cn3cncc3c(=O)[nH]2)cc1 [Compound A2, 6-(4-tert-Butyl-phenyl)-7H-imidazo[1,5-a]pyrazin-8-one] | < 0.3 | 3 to 50 | < 0.3 | 0.3 to 3 | < 0.3 | 3e-07 to 3e-06 | – | –
O=c1[nH]c(-c2ccc(C(F)(F)F)cc2)cn2cncc12 [Compound A3, 6-(4-Trifluoromethyl-phenyl)-7H-imidazo[1,5-a]pyrazin-8-one] | 0.3 to 3 | – | < 0.3 | 0.3 to 3 | < 0.3 | – | – | –
Cn1cc(-c2ccc(-c3cn4cncc4c(=O)[nH]3)cc2)cn1 [Compound A4, 6-[4-(1-methyl-1H-pyrazol-4-yl)-phenyl]-7H-imidazo[1,5-a]pyrazin-8-one] | 0.3 to 3 | – | < 0.3 | 0.3 to 3 | < 0.3 | – | – | –
O=c1[nH]c(-c2ccc(CO)cc2)cn2cncc12 [Compound A5, 6-(4-hydroxymethyl-phenyl)-7H-imidazo[1,5-a]pyrazin-8-one] | 0.3 to 3 | – | < 0.3 | 0.3 to 3 | < 0.3 | – | – | –
CC(C)(O)c1ccc(-c2cn3cncc3c(=O)[nH]2)cc1 [Compound A6, 6-[4-(1-hydroxy-1-methyl-ethyl)-phenyl]-7H-imidazo[1,5-a]pyrazin-8-one] | 0.3 to 3 | 3 to 50 | < 0.3 | 0.3 to 3 | < 0.3 | – | – | –
Cc1ncc2c(=O)[nH]c(-c3ccc(C(C)(C)C)cc3)cn12 [Compound A7, 6-(4-tert-butyl-phenyl)-3-methyl-7H-imidazo[1,5-a]pyrazin-8-one] | 0.3 to 3 | – | < 0.3 | 0.3 to 3 | < 0.3 | < 3e-07 | – | –
Cc1ncc2c(=O)[nH]c(-c3ccc(C(C)(C)O)cc3)cn12 [Compound A8, 6-[4-(1-hydroxy-1-methyl-ethyl)-phenyl]-3-methyl-7H-imidazo[1,5-a]pyrazin-one] | – | – | – | – | – | 3e-07 to 3e-06 | – | –
Oc1nc(-c2ccc(C(F)(F)F)cc2)nc2c1CSCC2 [XAV939] | – | – | – | – | – | – | blocked | inhibits growth
